Data from ChEMBL document CHEMBL4371066, “Synthesis and characterization of a photoresponsive doxorubicin/combretastatin A4 hybrid prodrug” (Bioorg Med Chem Lett, 2019).
The source made the active and inactive calls. The rule behind the calls is not given here.

Tests used:
Type in all cases: functional, cell-based
MDA-MB-231 [1] = assay: Phototoxicity against human MDA-MB-231 cells assessed as reduction in cell viability at 4 to 8 uM irradiated with 50 mW cm'-2 UV light for 6 mins and measured after 24 hrs by CCK8 assay
MDA-MB-231 [2] = assay: Cytotoxicity against human MDA-MB-231 cells assessed as reduction in cell viability at 4 to 8 uM measured after 24 hrs by CCK8 assay
MDA-MB-231 [3] = assay: Phototoxicity against human MDA-MB-231 cells assessed as reduction in cell viability at 2 to 8 uM irradiated with 50 mW cm'-2 UV light for 6 mins and measured after 24 hrs by CCK8 assay
MDA-MB-231 [4] = assay: Cytotoxicity against human MDA-MB-231 cells assessed as reduction in cell viability at 2 to 8 uM measured after 24 hrs by CCK8 assay

Structure (SMILES) | Activity (MDA-MB-231 [1]) | Activity (MDA-MB-231 [2]) | Activity (MDA-MB-231 [3]) | Activity (MDA-MB-231 [4])
COc1cccc2c1C(=O)c1c(O)c3c(c(O)c1C2=O)C[C@@](O)(C(=O)CO)C[C@@H]3O[C@H]1C[C@H](N)[C@H](O)[C@H](C)O1 | Active | Active | – | –
COc1ccc(/C=C\c2cc(OC)c(OC)c(OC)c2)cc1O | – | – | Active | Active
